Results on 28 molecules are retold here after patent publication US20250171462A1 (NICO Therapeutics, Inc., priority 2022, published 2025).

pIC50: −log10 of the molar value. Like-named read-outs stand apart in the source and are kept apart here. Some results are limits rather than exact numbers.

This assay concerns the target T1, full-length SARM1 (FL-SARM1) (Homo sapiens, UniProt Q6SZW1).
T1 sequence (Q6SZW1 28-724): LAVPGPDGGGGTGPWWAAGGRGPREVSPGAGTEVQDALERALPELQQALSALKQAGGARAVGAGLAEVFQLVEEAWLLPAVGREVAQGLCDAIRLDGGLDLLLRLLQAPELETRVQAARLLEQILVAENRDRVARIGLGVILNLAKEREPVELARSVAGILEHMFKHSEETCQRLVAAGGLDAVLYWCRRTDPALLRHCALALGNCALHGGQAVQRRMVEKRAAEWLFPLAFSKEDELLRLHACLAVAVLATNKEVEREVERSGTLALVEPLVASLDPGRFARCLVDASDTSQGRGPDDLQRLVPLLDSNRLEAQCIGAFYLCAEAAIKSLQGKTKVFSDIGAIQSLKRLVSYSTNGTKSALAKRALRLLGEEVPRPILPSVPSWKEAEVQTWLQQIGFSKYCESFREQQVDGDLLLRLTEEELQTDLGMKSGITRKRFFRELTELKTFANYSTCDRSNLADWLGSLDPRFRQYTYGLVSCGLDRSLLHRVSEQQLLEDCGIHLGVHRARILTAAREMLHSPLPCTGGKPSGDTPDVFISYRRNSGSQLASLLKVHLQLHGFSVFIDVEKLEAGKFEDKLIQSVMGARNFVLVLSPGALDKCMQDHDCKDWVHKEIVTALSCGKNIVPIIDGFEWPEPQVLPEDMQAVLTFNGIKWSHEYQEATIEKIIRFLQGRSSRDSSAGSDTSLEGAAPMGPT
Briefly: FL-SARM1 cellular lysate assay (NAD/NADH-Glo detection of remaining NAD+, NMN-activated). The conditions noted are these: for IC50: Activity (μM) (IC50).

Setting [1] is: Activity (IC50 class), 11 point curve.
Setting [2] is: read-out: Activity (IC50 class), 11 point curve.

In turn, `Cc1ccc(NC(=O)[C@H]2[C@H](C)OCCN2c2ccccn2)cc1-c1ncc(F)cn1` [Example 270, (2S,3R)-N-(3-(5-fluoropyrimidin-2-yl)-4-methylphenyl)-2-methyl-4-(pyridin-2-yl)morpholine-3-carboxamide] gave a pIC50 under setting [1] of 5.00 to 6.00. For the setting “11 point curve”, this molecule gave a half-inhibitory concentration (IC50) of 9.5 µM.

On to `Cc1ccc(NC(=O)C2C3CC(C3)N2c2ccccn2)cc1-c1ncc(F)cn1` (centres unmarked) [Example 271, N-(3-(5-fluoropyrimidin-2-yl)-4-methylphenyl)-2-(pyridin-2-yl)-2-azabicyclo[2.1.1]hexane-3-carboxamide], for which the negative logarithm of the IC50 (pIC50) under setting [1] was under 5.00. This molecule also came in with an IC50 (11 point curve) of 17 µM.

With `Cc1ccc(NC(=O)[C@H]2CC[C@@H](C(F)(F)F)N2c2ccccn2)cc1-c1ncc(F)cn1` [Example 276, (2R,5S)-N-[3-(5-fluoropyrimidin-2-yl)-4-methylphenyl]-1-pyridin-2-yl-5-(trifluoromethyl) pyrrolidine-2-carboxamide], the pIC50 under setting [1] is 5.00 to 6.00. The same molecule yielded an IC50 (11 point curve) of 6.3 µM.

In the case of `Cc1ccc(NC(=O)[C@H]2[C@@H](C)CCN2c2ccccn2)cc1-c1ncc(F)cn1` [Example 277, (2R,3S)-N-[3-(5-fluoropyrimidin-2-yl)-4-methylphenyl]-3-methyl-1-pyridin-2-ylpyrrolidine-2-carboxamide], the negative-log IC50 (pIC50) under setting [1] is 5.00 to 6.00. In addition, the half-inhibitory concentration (IC50) (11 point curve) was 1.4 µM.

Molecule `Cc1ccc(NC(=O)[C@H]2CCCN2c2ccccn2)cc1-c1ncc(F)cn1` [Example 279, (2R)-N-[3-(5-fluoropyrimidin-2-yl)-4-methylphenyl]-1-pyridin-2-ylpyrrolidine-2-carboxamide] had a pIC50 under setting [1] of 5.00 to 6.00. Further, for the setting “11 point curve”, inhibition was half-maximal at 4.2 µM (IC50).

On to `Cc1ccc(NC(=O)[C@H]2CC[C@H](C)N2c2ccccn2)cc1-c1ncc(F)cn1` [Example 281, (2R,5S)-N-[3-(5-fluoropyrimidin-2-yl)-4-methylphenyl]-5-methyl-1-pyridin-2-ylpyrrolidine-2-carboxamide], for which the pIC50 under setting [1] was 5.00 to 6.00. Moreover, the IC50 (11 point curve) came out at 1.3 µM.

The molecule `Cc1ccc(NC(=O)[C@H]2CC[C@@H](C)N2c2ccccn2)cc1-c1ncc(F)cn1` [Example 282, (2R,5R)-N-[3-(5-fluoropyrimidin-2-yl)-4-methylphenyl]-5-methyl-1-pyridin-2-ylpyrrolidine-2-carboxamide] showed a negative-log IC50 (pIC50) under setting [1] of 5.00 to 6.00. The molecule also showed an IC50 (11 point curve) of 1.2 µM.

On to `Cc1ccc(NC(=O)[C@H]2CC[C@@H](C)N2c2ccc(C#N)cn2)cc1-c1ncc(F)cn1` [Example 285, (2R,5R)-1-(5-cyanopyridin-2-yl)-N-[3-(5-fluoropyrimidin-2-yl)-4-methylphenyl]-5-methylpyrrolidine-2-carboxamide], for which, under setting [1], the negative logarithm of the IC50 (pIC50) was 5.00 to 6.00. This molecule came in with a 50% inhibitory concentration (IC50) (11 point curve) of 2.2 µM.

In the case of `CC(=O)N1[C@H](C)CC[C@@H]1C(=O)Nc1ccc(C)c(-c2ncc(F)cn2)c1` [Example 286, (2R,5R)-1-acetyl-N-[3-(5-fluoropyrimidin-2-yl)-4-methylphenyl]-5-methylpyrrolidine-2-carboxamide], the pIC50 under setting [1] is 5.00 to 6.00. Besides, the concentration for half-maximal inhibition (IC50) (11 point curve) is 1.7 µM.

Molecule `Cc1ccc(NC(=O)[C@H]2CC[C@@H](C)N2c2ncccn2)cc1-c1ncc(F)cn1` [Example 287, (2R,5R)-N-[3-(5-fluoropyrimidin-2-yl)-4-methylphenyl]-5-methyl-1-pyrimidin-2-ylpyrrolidine-2-carboxamide] gave a pIC50 under setting [1] of 5.00 to 6.00. The same molecule returned a half-maximal inhibitory concentration (IC50) (11 point curve) of 2.1 µM.

In the case of `Cc1ccc(NC(=O)[C@H]2C3CC(F)(F)C[C@H]32)cc1-c1cccnn1` (stereo partly drawn) [Example 288, cis-3,3-difluoro-N-(4-methyl-3-pyridazin-3-ylphenyl)bicyclo[3.1.0] hexane-6-carboxamide], the pIC50 under setting [1] was under 5.00. For the setting “11 point curve”, the 50% inhibitory concentration (IC50) was 15 µM.

Turning to `Cc1ccc(NC(=O)[C@H]2[C@@H]3CC(F)(F)C[C@@H]32)cc1-c1cccnn1` [Example 289, trans-3,3-difluoro-N-(4-methyl-3-pyridazin-3-ylphenyl)bicyclo[3.1.0] hexane-6-carboxamide], the negative logarithm of the IC50 (pIC50) under setting [1] was under 5.00. Moreover, inhibition (11 point curve) was half-maximal at 26 µM (IC50).

`Cc1ccc(NC(=O)[C@@H]2C[C@@H]2c2ccccn2)cc1-c1cccnn1` [Example 291, (1R,2S)-N-(4-methyl-3-pyridazin-3-ylphenyl)-2-pyridin-2-ylcyclopropane-1-carboxamide] gave a negative logarithm of the IC50 (pIC50) under setting [1] of under 5.00. Also, for the setting “11 point curve”, half-maximal inhibition (IC50) required 16 µM.

Regarding `Cc1ccc(NC(=O)[C@H]2CC[C@H]3C[C@H]3N2c2ncccn2)cc1-c1ncc(F)cn1` [Example 292, (1R,3R,6S)-N-[3-(5-fluoropyrimidin-2-yl)-4-methylphenyl]-2-pyrimidin-2-yl-2-azabicyclo[4.1.0]heptane-3-carboxamide], the negative logarithm of the IC50 (pIC50) under setting [1] was 5.00 to 6.00. This molecule came in with an IC50 (11 point curve) of 2 µM.

Under setting [1], `Cc1ccc(NC(=O)[C@H]2C[C@@H](C(F)(F)F)CN2c2ncccn2)cc1-c1cccnn1` [Example 294, (2R,4R)-N-(4-methyl-3-pyridazin-3-ylphenyl)-1-pyrimidin-2-yl-4-(trifluoromethyl) pyrrolidine-2-carboxamide] had a pIC50 of 5.00 to 6.00. In addition, where the note is “11 point curve”, the midpoint of inhibition, the IC50, lay at 9.4 µM.

In turn, `Cc1ccc(NC(=O)C2(C3CCC3)CC2)cc1-c1cccnn1` [Example 295, 1-cyclobutyl-N-(4-methyl-3-pyridazin-3-ylphenyl)cyclopropane-1-carboxamide] showed a pIC50 under setting [1] of under 5.00. Also, where the note is “11 point curve”, 13 µM corresponded to half-maximal inhibition (IC50).

The molecule `Cc1ccc(NC(=O)C(C)(C)C2CCC2)cc1-c1cccnn1` [Example 296, 2-cyclobutyl-2-methyl-N-(4-methyl-3-pyridazin-3-ylphenyl)propanamide] had a pIC50 under setting [1] of 5.00 to 6.00. Under “11 point curve”, this molecule returned an IC50 of 4.3 µM.

In the case of `Cc1ccc(NC(=O)[C@H]2C[C@H]2c2ccccc2)cc1-c1cccnn1` [Example 298, (1S,2R)-N-(4-methyl-3-pyridazin-3-ylphenyl)-2-phenylcyclopropane-1-carboxamide], for the setting “11 point curve”, the midpoint of inhibition, the IC50, lay at 0.6 µM. The pIC50 under setting [2] was 6.00 to 10.00.

Under setting [1], `Cc1ccc(NC(=O)[C@@H]2C[C@@H]2c2ccccc2)cc1-c1cccnn1` [Example 299, (1R,2S)-N-(4-methyl-3-pyridazin-3-ylphenyl)-2-phenylcyclopropane-1-carboxamide] gave a negative-log IC50 (pIC50) of under 5.00. For the same molecule, the half-maximal inhibitory concentration (IC50) (11 point curve) is 14 µM.

Under setting [1], `Cc1ccc(NC(=O)N2CCC3CC3CC2)cc1-c1ncc(F)cn1` (centres unmarked) [Example 300, N-(3-(5-fluoropyrimidin-2-yl)-4-methylphenyl)-4-azabicyclo[5.1.0]octane-4-carboxamide] showed a pIC50 of 5.00 to 6.00. The IC50 (11 point curve) came out at 1.2 µM.

Molecule `O=C(Nc1ccc(C(F)(F)F)c(-c2ncc(F)cn2)c1)[C@H]1C[C@H]2C[C@H]2N1c1ccccn1` [Example 301, (1R,3R,5R)-N-(3-(5-fluoropyrimidin-2-yl)-4-(trifluoromethyl)phenyl)-2-(pyridin-2-yl)-2-azabicyclo[3.1.0]hexane-3-carboxamide] showed a pIC50 under setting [1] of 5.00 to 6.00. Also, the concentration for half-maximal inhibition (IC50) (11 point curve) turned out to be 2.1 µM.

The molecule `O=C(Nc1ccc(C(F)(F)F)c(-c2ncc(F)cn2)c1)C1C2CCC1CC2` (centres unmarked) [Example 303, N-(3-(5-fluoropyrimidin-2-yl)-4-(trifluoromethyl)phenyl) bicyclo[2.2.1]heptane-e-7-carboxamide] had a 50% inhibitory concentration (IC50) (11 point curve) of 0.5 µM. Moreover, under setting [2], the pIC50 is 6.00 to 10.00.

Under setting [1], `O=C(Nc1ccc(C(F)(F)F)c(-c2ncc(F)cn2)c1)N1CCCC2CC2C1` (centres unmarked) [Example 304, N-(3-(5-fluoropyrimidin-2-yl)-4-(trifluoromethyl)phenyl)-3-azabicyclo[5.1.0]octane-3-carboxamide] gave a negative logarithm of the IC50 (pIC50) of 5.00 to 6.00. Besides, it took 2.4 µM to reach half-maximal inhibition (11 point curve) (IC50).

As for `CNC(=O)CC12CC(C)CC(C1)N2C(=O)Nc1ccc(C)c(-c2ncc(F)cn2)c1` (centres unmarked) [Example 305, N-(3-(5-fluoropyrimidin-2-yl)-4-methylphenyl)-3-methyl-1-(2-(methylamino)-2-oxoethyl)-6-azabicyclo[3.1.1]heptane-6-carboxamide], the half-maximal inhibitory concentration (IC50) (11 point curve) amounted to 0.01 µM. For the same molecule, the pIC50 under setting [2] is 6.00 to 10.00.

As to `CO[C@@H]1CCCN(C(=O)Nc2ccc(C(F)(F)F)c(-c3ncc(F)cn3)c2)CC1` [Example 306, (R)-N-(3-(5-fluoropyrimidin-2-yl)-4-(trifluoromethyl)phenyl)-4-methoxyazepane-1-carboxamide], under setting [1], the negative-log IC50 (pIC50) was 5.00 to 6.00. This molecule had an IC50 (11 point curve) of 9.6 µM.

In turn, `CO[C@H]1CCCN(C(=O)Nc2ccc(C(F)(F)F)c(-c3ncc(F)cn3)c2)CC1` [Example 307, (S)-N-(3-(5-fluoropyrimidin-2-yl)-4-(trifluoromethyl)phenyl)-4-methoxyazepane-1-carboxamide] showed a pIC50 under setting [1] of under 5.00. The molecule further displayed a half-maximal inhibitory concentration (IC50) (11 point curve) of 13 µM.

As to `CO[C@@H]1CCCCN(C(=O)Nc2ccc(C(F)(F)F)c(-c3ncc(F)cn3)c2)C1` [Example 308, (R)-N-(3-(5-fluoropyrimidin-2-yl)-4-(trifluoromethyl)phenyl)-3-methoxyazepane-1-carboxamide], the negative logarithm of the IC50 (pIC50) under setting [1] was under 5.00. In addition, for the setting “11 point curve”, inhibition was half-maximal at 32 µM (IC50).

In the case of `O=C(Nc1ccc(C(F)(F)F)c(-c2ncc(F)cn2)c1)N1C2CC3CC(C2)CC1C3` [Example 310, N-(3-(5-fluoropyrimidin-2-yl)-4-(trifluoromethyl)phenyl)-2-azaadamantane-2-carboxamide], under “11 point curve”, the half-maximal inhibitory concentration (IC50) is 0.7 µM. Also, the negative-log IC50 (pIC50) under setting [2] is 6.00 to 10.00.
